Experimental data as given in article PMC11602988 (The Journal of Biological Chemistry, 2024).
Numbering of substitutions follows the chain as printed. Like-named read-outs stand apart in the source and are kept apart here.

Key:
OCT1 Phe244Ala variant = biological target: T1, OCT1 Phe244Ala variant (Homo sapiens, UniProt O15245, F244A); assay: Uptake screening (transport ratio over empty vector), HEK293 cells overexpressing OCT1 Phe244Ala variant; format: cell-based; set-up: expressed in transfected cells;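 further: stably transfected HEK293 cells, intracellular substrate quantified by HPLC-tandem mass spectrometry in cell lysates, uptake in HBSS+ buffer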
T1 sequence (O15245 1-554 F244A): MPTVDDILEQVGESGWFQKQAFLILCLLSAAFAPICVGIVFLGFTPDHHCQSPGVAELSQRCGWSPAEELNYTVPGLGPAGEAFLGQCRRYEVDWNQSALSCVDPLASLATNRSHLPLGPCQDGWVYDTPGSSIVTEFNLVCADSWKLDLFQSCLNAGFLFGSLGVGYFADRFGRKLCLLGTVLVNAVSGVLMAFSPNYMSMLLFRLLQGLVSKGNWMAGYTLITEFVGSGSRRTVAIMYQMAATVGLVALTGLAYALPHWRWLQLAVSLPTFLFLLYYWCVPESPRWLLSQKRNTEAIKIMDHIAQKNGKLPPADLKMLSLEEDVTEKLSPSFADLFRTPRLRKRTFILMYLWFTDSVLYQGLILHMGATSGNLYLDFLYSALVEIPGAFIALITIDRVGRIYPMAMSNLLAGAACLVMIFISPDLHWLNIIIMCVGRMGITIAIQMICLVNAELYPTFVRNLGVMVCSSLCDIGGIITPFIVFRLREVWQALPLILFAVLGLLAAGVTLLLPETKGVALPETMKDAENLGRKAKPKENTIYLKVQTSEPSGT
Method: (§1) All experiments were carried out using transporter-overexpressing HEK293 cells. […] Cells were cultivated in Dulbecco’s Modified Eagle’s medium supplemented with 10% fetal calf serum, 100 U/ml penicillin, and 100 μg/ml streptomycin. Cells were passaged twice a week and kept in culture for no longer than 30 passages.
(§2) For uptake studies, 300,000 HEK293 cells were plated in each well of 24-well plates precoated with poly-D-lysine 48 prior to the experiment. On the day of the experiment, cells were washed once with prewarmed to 37 °C HBSS+ (Hank’s balanced salt solution supplemented with 10 mM Hepes, both Sigma-Aldrich). […] Uptake was stopped by adding ice-cold HBSS+ and cells were washed twice with ice-cold buffer before cell lysis was done using 80% acetonitrile containing an appropriate internal standard for eventual mass spectrometry. Relative quantification was done by comparison of transporter-overexpressing cells to empty vector–transfected controls. For uptake kinetic experiments, cells were incubated with increasing concentrations of substrate dissolved in HBSS+. Absolute quantification was done later by comparison to a standard curve in lysis buffer with known concentration.
(§3) Intracellular drug concentrations were detected and quantified by HPLC coupled to mass spectrometry. […] Substance-specific conditions were used to adjust the retention times of the analytes.
(§4) Transport ratios were determined as relative fold-increase of the uptake in transporter-overexpressing cells over empty vector–transfected control cells. For transport kinetic experiments, absolute substrate quantification was done by signal comparison to a standard curve with known concentrations. Net uptake was then determined by subtracting the uptake into empty vector–transfected cells from transporter-overexpressing cells. […] Vmax defines the maximum transport velocity, Km refers to the substrate concentration required to reach half vmax. The intrinsic clearance Clint is the ratio of vmax over Km.

OCT1 WT = biological target: T2, OCT1 WT (Homo sapiens, UniProt O15245); assay: Uptake screening (transport ratio over empty vector), HEK293 cells overexpressing OCT1 WT; format: cell-based; set-up: expressed in transfected cells;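 further: intracellular substrate levels quantified by HPLC–tandem mass spectrometry after uptake in HBSS+ buffer at 37 °C, stable Flp-In HEK293 lines, fold change versus empty vector–transfected cells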
T2 sequence (O15245 1-554): T1 sequence (O15245 1-554 F244A) with A244F
Method: as §1, §2, §3, §4

[1] = Phe244Ala uptake relative to OCT1 WT
[2] = uptake ratio over empty vector, HEK293 cells overexpressing OCT1 Phe244Ala
[3] = uptake ratio over empty vector, HEK293 cells overexpressing OCT1 WT
[4] = uptake ratio of OCT1 Phe244Ala-overexpressing HEK293 cells over empty vector
[5] = uptake ratio of OCT1 WT-overexpressing HEK293 cells over empty vector
[6] = Phe244Ala uptake relative to WT

Molecule	relative_Phe244Ala_uptake_in% (OCT1 Phe244Ala variant; [1]) [%]	Mean_transport_ratio_Phe244Ala (OCT1 Phe244Ala variant; [2])	Mean_transport_ratio_WT (OCT1 WT; [3])	relative_Phe244Ala_uptake_in% (OCT1 Phe244Ala variant; [6]) [%]	other results
CC(C)(C)NCC(O)c1ccc(O)c(CO)c1 (stereo not drawn) [Salbutamol]	142.307	12.079	8.785		
CC[C@H](CO)NCCN[C@@H](CC)CO [(R,S)-Ethambutol]					Mean_transport_ratio_Phe244Ala (OCT1 Phe244Ala variant): 12.934; relative_Phe244Ala_uptake_in% (OCT1 Phe244Ala variant): 72.992%; Mean_transport_ratio_WT (OCT1 WT): 17.35
COc1ccc2c3c([nH]c2c1)C(C)=NCC3 [Harmaline]	53.184				Mean_transport_ratio_Phe244Ala (OCT1 Phe244Ala variant; [4]): 1.245; Mean_transport_ratio_WT (OCT1 WT; [5]): 1.46
CCN(CC)CCNC(=O)c1ccc(NS(C)(=O)=O)cc1 [Sematilid]	52.483	2.352	3.577		
CN(C)c1ccc(/C=C/c2cc[n+](C)cc2)cc1 [ASP^+, 4-(4-(dimethylamino)styryl)-N-methylpyridinium]		8.237	12.491	62.977	
C[C@H]1N=C(N(C)C)N=C(N)N1 [Imeglimin]	25.831				Mean_transport_ratio_Phe244Ala (OCT1 Phe244Ala variant; [4]): 9.177; Mean_transport_ratio_WT (OCT1 WT; [5]): 32.655
COc1cc2c(cc1OC)-c1c(C)c3ccc(OC)c(OC)c3c[n+]1CC2 [Dehydrocorydaline]		9.409	9.385	100.287	
CC[N+](CC)(CC(=O)Nc1c(C)cccc1C)Cc1ccccc1 [Denatonium]		17.085	14.264	121.267	
NCC(O)c1ccc(O)cc1 (stereo not drawn) [Octopamine]	54.574				Mean_transport_ratio_Phe244Ala (OCT1 Phe244Ala variant; [4]): 2.606; Mean_transport_ratio_WT (OCT1 WT; [5]): 3.942
O=S(=O)(c1cccc2cnccc12)N1CCCNCC1 [Fasudil]					Mean_transport_ratio_Phe244Ala (OCT1 Phe244Ala variant; [4]): 1.171; Mean_transport_ratio_WT (OCT1 WT; [5]): 1
Cc1nccn1CC1CCc2c(c3ccccc3n2C)C1=O (stereo not drawn) [Ondansetron]	92.867	1.514	1.554		
CN1CCN(CC(=O)N2c3ccccc3C(=O)Nc3cccnc32)CC1 [Pirenzipin]	803.892	8.32	1.911		
c1cnn(C2CCNCC2)c1 [762240-09-5]		1.119	4.49	3.421	
CC(C)(C)NCC(O)c1ccc(O)c(O)c1 (stereo not drawn) [Colterol]		2.364	5.025	33.880	
(-)-Sparteine					Mean_transport_ratio_Phe244Ala (OCT1 Phe244Ala variant): 4.411; relative_Phe244Ala_uptake_in% (OCT1 Phe244Ala variant): 84.604%; Mean_transport_ratio_WT (OCT1 WT): 5.032
NCC(O)c1cccc(O)c1 (stereo not drawn) [Norphenylephrine]	40.709				Mean_transport_ratio_Phe244Ala (OCT1 Phe244Ala variant; [4]): 1.772; Mean_transport_ratio_WT (OCT1 WT; [5]): 2.898
CCN[C@@H](C)Cc1cccc(C(F)(F)F)c1 [(S)-Fenfluramine]					Mean_transport_ratio_Phe244Ala (OCT1 Phe244Ala variant): 1.119; relative_Phe244Ala_uptake_in% (OCT1 Phe244Ala variant): 183.841%; Mean_transport_ratio_WT (OCT1 WT): 1.065
CC(=O)OC(C)C[N+](C)(C)C (stereo not drawn) [Acetyl-beta-Methylcholin]		7.521	46.311	14.392	
CC(C)NCC(O)c1ccc(NS(C)(=O)=O)cc1 (stereo not drawn) [Sotalol]	43.617	2.831	5.197		
CCN1CCCC1CNC(=O)c1cc(S(=O)(=O)CC)c(N)cc1OC (stereo not drawn) [Amisulpride]		8.279	8.435	97.893	
CC(C)NC[C@H](O)COc1ccc(O)cc1 [S-Prenalterol]	112.541	4.341	3.969		
CC[N+](C)(CC)CCOC(=O)C(O)(c1ccccc1)C1CCCCC1 (stereo not drawn) [Oxyphenonium]	124.905	40.516	32.636		

Molecule	relative_Phe244Ala_uptake_in% (OCT1 Phe244Ala variant; [1]) [%]	Mean_transport_ratio_Phe244Ala (OCT1 Phe244Ala variant; [2])	Mean_transport_ratio_WT (OCT1 WT; [3])	relative_Phe244Ala_uptake_in% (OCT1 Phe244Ala variant; [6]) [%]	other results
NC(N)=NC(N)=Nc1ccc(Cl)cc1 [CPB]		13.901	17.903	76.322	
COCCn1c2c([n+](Cc3cnccn3)c1C)C(=O)c1ccccc1C2=O [YM155]	88.784	16.385	18.329		
CNS(=O)(=O)Cc1ccc2[nH]cc(CCN(C)C)c2c1 [Sumatriptan]	115.380	37.118	32.304		
CN(C)CCc1c[nH]c2ccc(Cn3cncn3)cc12 [Rizatriptan]	26.058	2.714	7.577		
CNC(C)Cc1ccc2c(c1)OCO2 (stereo not drawn) [3,4-Methylendioxy-N-methylamphetamin]	158.013				Mean_transport_ratio_Phe244Ala (OCT1 Phe244Ala variant; [4]): 2.142; Mean_transport_ratio_WT (OCT1 WT; [5]): 1.723
CN(C)C(=O)Oc1cccc([N+](C)(C)C)c1 [Neostigmine]	23.835				Mean_transport_ratio_Phe244Ala (OCT1 Phe244Ala variant; [4]): 12.952; Mean_transport_ratio_WT (OCT1 WT; [5]): 51.144
COc1ccc2cc3[n+](cc2c1OC)CCc1cc2c(cc1-3)OCO2 [Berberine]		7.924	11.952	63.219	
C[N+]1(C)CCN(c2ccccc2)CC1 [Dimethylphenylpiperazinium]		24.939	34.77	70.889	
N=C(N)NC(=O)c1nc(Cl)c(N)nc1N [Amiloride]					Mean_transport_ratio_Phe244Ala (OCT1 Phe244Ala variant): 23.504; relative_Phe244Ala_uptake_in% (OCT1 Phe244Ala variant): 61.492%; Mean_transport_ratio_WT (OCT1 WT): 37.597
Cc1cc(C(C)(C)C)c(O)c(C)c1CC1=NCCN1 [Oxymetazoline]	112.174	8.896	8.039		
CN[C@@H]1CCc2[nH]c3ccc(C(N)=O)cc3c2C1 [R-Frovatriptan]	64.599	10.8	16.171		
NCCc1c[nH]c2ccccc12 [Tryptamin]	9.229	1.149	2.619		
CNCc1ccc(CSCCNC(=C[N+](=O)[O-])NC)o1 [N-Desmethyl ranitidine]		31.7	35.663	88.566	
[H]/N=C(/N)N/C(=N/[H])NCCc1ccccc1 [Phenformin]	112.534	32.603	29.083		
CN=C(NC#N)NCCSCc1nc[nH]c1C [Cimetidin]		2.588	2.536	103.374	
CC(C)N(CCC(C(N)=O)(c1ccccc1)c1ccccn1)C(C)C (stereo not drawn) [Disopyramide]		1.093	1.334	27.882	
CNC(=C[N+](=O)[O-])NCCSCc1ccc(CN(C)C)o1 [Ranitidin]	66.532	11.729	17.125		
CC1(C)N=C(N)N=C(N)N1c1ccc(Cl)cc1 [Cycloguanil]		16.588	17.269	95.814	
CNCC(O)c1ccc(O)c(OC)c1 (stereo not drawn) [Metanephrine]	38.392				Mean_transport_ratio_Phe244Ala (OCT1 Phe244Ala variant; [4]): 3.351; Mean_transport_ratio_WT (OCT1 WT; [5]): 7.123
O=C(OC1C[N+]2(CCCOc3ccccc3)CCC1CC2)C(O)(c1cccs1)c1cccs1 [(S)-Aclidinium]		8.181	4.495	205.468	
CNC[C@H](O)c1cccc(O)c1 [(R)-Phenylephrine]	36.831	3.864	8.777		
Cc1cccc(C)c1OCC(C)N (stereo not drawn) [Mexiletine]	53.635				
